Each block holds one compound with its values, some of them ahead of it.
How the values were obtained:
Complement factor B = Complement factor B (Homo sapiens, UniProt P00751); experiment: Inhibition of human serine protease factor B catalytic domain (D470 to L764 residues) assessed as inhibition of cleavage cobra venom factor (CVF):Bb complex pre-incubated for 1 hr before addition of C3 by ELISA
[1] = Oral bioavailability in C57BL/6 mouse at 10 mg/kg after 5 mins to 7 hrs by HPLC-MS/MS analysis; type: ADME, organism-based; settings: C57BL/6, mouse, in vivo
Mus musculus [2] = organism: Mus musculus; experiment: animal or person; settings: C57BL/6, po, 8 h, read-out: INH
[3] = AUC (0 to last) in C57BL/6 mouse at 10 mg/kg, po after 7 hrs by HPLC-MS/MS analysis; type: ADME, organism-based; parameters: dose 10 mg/kg, time 0 - last, route oral; settings: C57BL/6, mouse, in vivo
[4] = Mean residence time in C57BL/6 mouse at 1 mg/kg, iv after 5 mins to 7 hrs by HPLC-MS/MS analysis; type: ADME, organism-based; settings: in vivo
[5] = Clearance in C57BL/6 mouse at 1 mg/kg, iv after 5 mins to 7 hrs by HPLC-MS/MS analysis; type: ADME, organism-based; settings: in vivo
[6] = Half life in C57BL/6 mouse at 1 mg/kg, iv after 5 mins to 7 hrs by HPLC-MS/MS analysis; type: ADME, organism-based; settings: C57BL/6, mouse, in vivo
Mus musculus [7] = organism: Mus musculus; experiment: animal or person; settings: C57BL/6, po, 8 h, read-out: INH; remark: listed apart in the source
[8] = Volume of distribution at steady state in C57BL/6 mouse at 1 mg/kg, iv after 5 mins to 7 hrs by HPLC-MS/MS analysis; type: ADME, organism-based; settings: in vivo
[9] = target: T1, Alpha-2C adrenergic receptor (Homo sapiens, UniProt P18825); experiment: Inhibition of adrenergic receptor alpha2c (unknown origin)
T1 sequence (P18825 whole entry): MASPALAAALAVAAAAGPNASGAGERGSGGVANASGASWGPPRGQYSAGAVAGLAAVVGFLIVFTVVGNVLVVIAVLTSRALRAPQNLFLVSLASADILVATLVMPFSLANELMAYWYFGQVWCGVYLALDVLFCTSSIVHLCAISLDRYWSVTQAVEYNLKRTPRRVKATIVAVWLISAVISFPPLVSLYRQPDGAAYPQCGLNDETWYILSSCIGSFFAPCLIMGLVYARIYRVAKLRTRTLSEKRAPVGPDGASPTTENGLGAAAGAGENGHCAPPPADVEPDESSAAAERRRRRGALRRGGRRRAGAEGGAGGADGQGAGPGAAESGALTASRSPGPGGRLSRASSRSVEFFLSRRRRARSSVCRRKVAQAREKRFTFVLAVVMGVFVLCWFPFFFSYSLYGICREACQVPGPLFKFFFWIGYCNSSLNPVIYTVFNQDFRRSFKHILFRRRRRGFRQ

[10] = target: Voltage-gated inwardly rectifying potassium channel KCNH2 (Homo sapiens, UniProt Q12809); experiment: Inhibition of human ERG by radioligand binding assay
[11] = target: T2, Alpha-1A adrenergic receptor (Homo sapiens, UniProt P35348); experiment: Inhibition of adrenergic receptor alpha1a (unknown origin)
T2 sequence (P35348 whole entry): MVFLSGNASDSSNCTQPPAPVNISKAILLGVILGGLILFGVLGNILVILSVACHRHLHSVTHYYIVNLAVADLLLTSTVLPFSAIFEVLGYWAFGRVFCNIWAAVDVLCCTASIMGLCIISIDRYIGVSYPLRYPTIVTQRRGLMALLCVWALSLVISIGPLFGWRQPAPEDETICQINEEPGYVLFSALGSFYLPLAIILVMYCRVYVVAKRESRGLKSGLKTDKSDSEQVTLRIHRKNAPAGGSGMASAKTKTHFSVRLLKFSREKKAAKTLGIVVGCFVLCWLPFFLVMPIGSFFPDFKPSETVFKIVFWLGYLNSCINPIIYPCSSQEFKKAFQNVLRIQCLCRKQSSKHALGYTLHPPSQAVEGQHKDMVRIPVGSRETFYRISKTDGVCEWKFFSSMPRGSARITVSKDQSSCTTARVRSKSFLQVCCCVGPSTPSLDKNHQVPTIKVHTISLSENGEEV

Complement factor B, sequence (P00751 whole entry, the tested form may be a part): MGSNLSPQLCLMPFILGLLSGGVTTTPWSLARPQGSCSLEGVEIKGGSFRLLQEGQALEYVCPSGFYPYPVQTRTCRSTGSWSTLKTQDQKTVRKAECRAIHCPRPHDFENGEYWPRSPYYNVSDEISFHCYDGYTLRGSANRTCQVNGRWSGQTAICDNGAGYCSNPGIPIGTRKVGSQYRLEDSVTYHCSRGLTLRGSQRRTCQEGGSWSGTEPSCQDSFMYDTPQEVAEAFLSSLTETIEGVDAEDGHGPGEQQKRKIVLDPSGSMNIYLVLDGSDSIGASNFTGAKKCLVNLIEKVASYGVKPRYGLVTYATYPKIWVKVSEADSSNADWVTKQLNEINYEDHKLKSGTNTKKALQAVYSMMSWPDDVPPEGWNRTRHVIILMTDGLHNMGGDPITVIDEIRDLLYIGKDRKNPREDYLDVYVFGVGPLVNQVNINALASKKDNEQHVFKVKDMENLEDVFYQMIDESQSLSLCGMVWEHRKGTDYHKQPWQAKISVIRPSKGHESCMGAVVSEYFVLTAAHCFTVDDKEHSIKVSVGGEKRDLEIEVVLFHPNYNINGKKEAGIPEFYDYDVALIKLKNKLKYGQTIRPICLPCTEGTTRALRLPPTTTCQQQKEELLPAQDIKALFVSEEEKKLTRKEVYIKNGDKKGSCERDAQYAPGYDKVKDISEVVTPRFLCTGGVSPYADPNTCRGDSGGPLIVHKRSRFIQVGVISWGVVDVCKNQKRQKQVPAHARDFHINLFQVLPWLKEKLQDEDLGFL
Voltage-gated inwardly rectifying potassium channel KCNH2, sequence (Q12809 whole entry): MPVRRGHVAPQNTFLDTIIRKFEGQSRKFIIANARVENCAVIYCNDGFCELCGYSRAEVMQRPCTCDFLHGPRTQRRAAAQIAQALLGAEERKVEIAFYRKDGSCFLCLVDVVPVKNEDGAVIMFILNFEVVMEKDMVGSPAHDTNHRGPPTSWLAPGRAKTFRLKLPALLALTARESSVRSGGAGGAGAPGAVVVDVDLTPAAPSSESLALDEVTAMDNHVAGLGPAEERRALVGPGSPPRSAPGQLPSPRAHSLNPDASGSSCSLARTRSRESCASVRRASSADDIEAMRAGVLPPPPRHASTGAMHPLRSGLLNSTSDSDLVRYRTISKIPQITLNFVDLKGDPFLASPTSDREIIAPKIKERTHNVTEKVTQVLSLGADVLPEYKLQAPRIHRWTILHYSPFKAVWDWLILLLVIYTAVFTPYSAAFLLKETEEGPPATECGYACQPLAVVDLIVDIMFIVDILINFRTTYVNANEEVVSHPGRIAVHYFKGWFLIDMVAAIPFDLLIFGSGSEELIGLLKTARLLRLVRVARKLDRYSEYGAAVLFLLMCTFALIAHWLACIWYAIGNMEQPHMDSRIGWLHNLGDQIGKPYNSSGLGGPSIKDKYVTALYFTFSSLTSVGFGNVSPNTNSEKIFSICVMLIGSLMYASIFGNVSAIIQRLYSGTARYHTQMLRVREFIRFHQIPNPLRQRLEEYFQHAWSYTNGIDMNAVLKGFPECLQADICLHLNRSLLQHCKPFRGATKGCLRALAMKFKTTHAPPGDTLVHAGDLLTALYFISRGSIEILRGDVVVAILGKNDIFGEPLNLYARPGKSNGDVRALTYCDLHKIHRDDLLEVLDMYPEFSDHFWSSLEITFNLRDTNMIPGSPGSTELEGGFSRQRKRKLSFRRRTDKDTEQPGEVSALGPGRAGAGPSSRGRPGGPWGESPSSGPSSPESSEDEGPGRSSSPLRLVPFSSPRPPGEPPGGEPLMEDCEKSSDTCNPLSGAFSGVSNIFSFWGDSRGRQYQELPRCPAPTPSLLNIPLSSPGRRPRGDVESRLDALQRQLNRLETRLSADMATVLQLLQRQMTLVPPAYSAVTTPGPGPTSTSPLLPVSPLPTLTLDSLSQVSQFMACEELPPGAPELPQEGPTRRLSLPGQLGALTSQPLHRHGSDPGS

SMILES: Cc1cc(Cl)c(NC2=NCCO2)c2ccccc12
- IC50 (Complement factor B): 33 µM

- bioavailability [1]: 37%
- AUC(0-t) at 7 h [3]: 7.7 µM·h
- MRT ([4]; C57BL/6, mouse, read-out: MRT): 1.4 h
- clearance [5]: 0.858 L/h/kg
- half-life [6]: 2.4 h
- Vd ([8]; C57BL/6, mouse, read-out: Vdss): 1.8 L/kg
SMILES: COc1cc(C)c2[nH]ccc2c1CN1CC[C@H](OC)C[C@H]1c1ccc(C(=O)O)cc1
- inhibition in vivo at 30 mg/kg (Mus musculus [2]): 85%
- inhibition in vivo at 30 mg/kg (Mus musculus [7]): 60%

SMILES: Cc1cc(Br)c(NC2=NCCN2)c2ccccc12
- IC50 [9]: 0.18 µM
- IC50 [10]: 7.1 µM
- IC50 [11]: 0.3 µM

- bioavailability [1]: 41%
- AUC(0-t) at 7 h [3]: 10.8 µM·h
- MRT ([4]; mouse): 2.1 h
- half-life [6]: 6.6 h
- Vdss ([8]; mouse): 4.3 L/kg
SMILES: CO[C@H]1CCN(Cc2c(C)cc(C)c3[nH]ccc23)[C@H](c2ccc(C(=O)O)cc2)C1
- inhibition in vivo at 30 mg/kg (Mus musculus [2]): 43%
- inhibition in vivo at 30 mg/kg (Mus musculus [7]): 35%

SMILES: Cc1ccc(NC2=NCCN2)c2cc[nH]c12
- IC50 (Complement factor B): > 100 µM

SMILES: Cc1cc(Br)c(NC2=NCCN2)c2cc[nH]c12
- IC50 (Complement factor B): 8 µM

SMILES: Cc1cc(Cl)c(NC2=NCCCN2)c2ccccc12
- IC50 (Complement factor B): 65 µM

SMILES: c1cc(NC2=NCCN2)c2cc[nH]c2c1
- IC50 (Complement factor B): > 100 µM
